Assays:
[1] = Stability in water at about pH 8; settings: water at about pH 8, 24 hours, ambient temperature
Protocol: Quercetin-3′-O-phosphate is dissolved in water at about pH 8.
Fisetin-3′-O-phosphate is dissolved in water at about pH 8.
Quercetin-3′-O-methylphosphonate (Compound 2) is dissolved in water at about pH 8.

[2] = tested on: BB19 cells, human BCECs (brain capillary endothelial cells); assay: Tacrolimus uptake assay; type: cell-based; settings: Endothelial cell, 1 h, 0.1 μM test compound, 1 hour incubation, 3H-tacrolimus 34 nM, read-out: cell associated ^3H-tacrolimus uptake, % of control
Protocol: (§1) BB19 cells, human BCECs (brain capillary endothelial cells) immortalized with the E6E7 genes of human papilloma virus, were kindly provided from Jacques G. Prudhomme, Department of Biology, University of California, Riverside, U.S.A. The cells were cultured as monolayer culture in Amniomax™-C100 basal medium (catalog number 17001-157) with Amniomax™-C100 supplement (catalog number 12556-049) (Invitrogen, Basel, CH).
(§2) Cells were seeded onto culture surfaces precoated with 10 μg/cm^2 rat tail collagen type I (BD Bioscience, Allschwil, CH) at a density of approximately 50′000 cells/cm^2 and were cultured in an incubator at 37° C. with 5% CO2, 95% fresh air and saturated humidity. For uptake assays, cells were seeded on precoated 96-well plates. Assays were performed at confluency, after 6 days in culture.
(§3) BB19 cells were seeded 50′000 cells/cm^2 on 96-well plates (Falcon) and incubated under condition described above for 6 days. Before starting the assay, cells were washed 2 times with pre-warmed Dulbecco's MEM with Glutamax-I (catalog number 61965) (Invitrogen AG, Basel, CH), supplemented with 1% non essential amino acids, 1% sodium pyruvate, 50 μg/ml gentamycin (Invitrogen AG) (DMEM). Cells were then incubated for 15 min at 37° C. and 120 rpm in DMEM with or without the specified concentrations of test compounds under investigation. After this pre-incubation, cells were incubated in DMEM containing [propyl-3H]-dihydro-FK506 (3H-tacrolimus, 1 μCi/ml, 34 nM) and with or without the specified concentrations of test compounds for 1 hour at 37° C. and 120 rpm. During this 1-hour incubation period, influx and efflux of the substrate, ^3H-tacrolimus, occur. After the 1-hour incubation period, assay was terminated by placing the assay plate on ice and washing the cells twice with ice-cold DMEM. Determination of cell associated ^3H-tacrolimus was performed by addition of Insta Gel and scintillation liquid to trypsinized cells followed by analysis on a scintillation counter (Packard TriCarb2000, Can berra Packard S.A.). The results are expressed as: % of control=100×[^3H-tacrolimus conc. with test compound]/[^3H-tacrolimus conc. with vehicle]

ZDF rats [3] = assay: Oral glucose tolerance test (OGTT) in ZDF rats after the 4 week study; type: in vivo; settings: glucose 2 g/Kg PO; compound 2 100 mg/kg, compound 3 50 mg/kg i.p.
Protocol: Following the 4 week study described in Example 26 above, the animals were fasted for 12 hours and on day-29, pre-drug blood samples are collected and glucose level and insulin level are measured. The animals are treated intraperitoneally (i.p.) with the following compounds:
Thirty (30) minutes after the treatment, pre-glucose blood samples are collected and the animals are then dosed with glucose (2 g/Kg, PO). Tail vein blood samples are collected at 30, 60, 90 and 120 minutes. Glucose levela and insulin leveal are measured. FIG. 31 show the plasma glucose level measured during OGTT. […] FIG. 32 show the plasma insulin level measured during OGTT. Phosphonated pyrone analogs raise insulin output in response to OGTT.

ZDF rats [4] = assay: Pancreas histopathology, insulin staining and TUNEL in ZDF rats; type: in vivo
Source text: Pancreas samples from Example 26 are stored in 10% NBF and used in this study. All tissue samples were processed through graded alcohols, cleared in xylene and infiltrated and embedded into paraffin. For the pancreas four 4 micron sections were cut, one was stained with Hematoxylin and Eosin for histopathology, two were immunohistochemically stained with an antibody to insulin to determine beta cell mass and one was stained for apoptosis with the tunel technique.
The insulin staining procedure was performed as follows: Endogenous peroxidase activity was inhibited by incubation in 3% hydrogen peroxide. Non-specific staining was blocked with DAKO Protein Block Serum-Free (Dako, Carpinteria, Calif.). Insulin positive cells were immunohistochemically stained with a polyclonal guinea pig anti-swine insulin antibody at room temperature for 30 minutes (Dako, Carpinteria, Calif.). After incubation with primary antibody, the tissue sections were sequentially incubated with Envision+ HRP Rabbit (Dako, Carpinteria, Calif.). Staining was developed with Liquid DAB+ (Dako, Carpinteria, Calif.) and counterstained with hematoxylin.
Pancreas samples were stained for apoptosis as follows: 4 micron sections were cut and stained for TUNEL utilizing the following kit In Situ Cell Death Detection Kit, AP (Roche Applied Science, catalog 11 684 809 910).

male ZDF rats = assay: 4 week study in ZDF rats (compound 2, compound 3); type: in vivo
Source text: Seven week old male ZDF rats are used for the study.
Experimental Design: This study is a 4 week study Using 32 7-week old male ZDF rats, divided into 4 treatment arms (8 rats/arm).

[5] = tested on: rats treated with tacrolimus; assay: Renal pathology in rats co-administered with tacrolimus; type: in vivo; settings: tacrolimus 0.5 mg/kg with vehicle or with Compound 2 at 11, 28 and 114 mg/kg, 25 days
Protocol: Tissue is removed from the kidney of rats treated with tacrolimus (Prograf®) at 0.5 mg/kg and inert vehicle, and from rats treated with tacrolimus (Prograf®) at 0.5 mg/kg and quercetin-3′-O-methylphosphonate (Compound 2) at 11 mg/kg, 28 mg/kg, and at 114 mg/kg for 25 days. […] The tissue from rats treated with Compound 2 and tacrolimus show no vacuoles.

[6] = tested on: BB19 cells, human BCECs (brain capillary endothelial cells); assay: Cyclosporin uptake assay; type: cell-based; settings: 0.1 μM test compound; 1 hour incubation; 0.1 µM
Protocol: as §1, §2, §3
The cyclosporin uptake assay was performed similarly as described above for tacrolimus uptake assay except that ^3H-cyclosporin was used in place of ^3H-tacrolimus.

[7] = following four weeks of daily treatment

O=c1c(O)c(-c2ccc(O)c(OCP(=O)(O)O)c2)oc2cc(O)cc(O)c12 [Compound 2, Quercetin-3′-O-methylphosphonic acid]
degradation seen by NMR [1]: no degradation | activity at 0.1 µM [2]: 51% | plasma glucose level during OGTT (ZDF rats [3]): protect against hyperglycemia | islet cell apoptosis (ZDF rats [4]; TUNEL, following four weeks of daily treatment): decreases in islet cell apoptosis | decrease in islet vacuolar degeneration (inhibition) (ZDF rats [4]; [7]): 43% | decrease in pancreatic inflammation (inhibition) (ZDF rats [4]; [7]): 60% | ratio of insulin positive islet cells to pancreas cells (ZDF rats [4]; insulin immunohistochemistry): significantly increased | plasma insulin levels (male ZDF rats; 4 weeks daily i.p., compared to vehicle treated animals): require lower insulin levels to maintain nomal glucose levels | plasma glucose levels (male ZDF rats; 4 weeks daily i.p., compound 2 100 mg/kg, compound 3 100 mg/kg day 4 and 5, 50 mg/kg day 6-28, rosiglitazone 6 mg/kg): maintains steady glucose levels | glycated hemoglobin levels (% HbA1c) at termination (male ZDF rats; compared to vehicle treated animals): lower glycated hemoglobin levels | triglycerides (male ZDF rats; day 14 and day 21, over vehicle controls): marked decreases in triglycerides | vacuolation of kidney tissue [5]: no vacuoles | cell associated ^3H-cyclosporin uptake, % of control [6]: 54 % of control

Source: patent US20100297020A1, “PHOSPHORYLATED AND PHOSPHONATED PYRONE ANALOGS FOR THERAPEUTIC TREATMENT” (Limerick Biopharma, Inc., priority 2008, published 2010)
